Measurements from patent US20090179638A1, “ASSAY FOR IDENTIFYING INHIBITORS OF NEURONAL APOPTOTIC PATHWAYS” (AEGERA THERAPEUTICS INC., priority 2006, published 2009).

System: HSP70
Assay: HSP protein expression in PC12 / PC12rtTA cells (immunoblot)
Type: cell-based
Conditions: for HSP70 production: PC12rtTA cells infected with AdNRG, Adp75 or AdLacZ, 30 hours (FIG. 6A)
Procedure: FIGS. 4A-4C are photographs of Western blots which illustrate that compound 1 treatment of PC12 cells induces expression of HSP70. A: PC12 cells were infected with 5 MOI of AdNRG (NRG) or AdLacZ (LacZ) as indicated. Cells were left untreated (0) or treated with 40 μM compound 1 at time of infection (30), one hour before lysis (1), or at both times (30+1). Cells were lysed thirty hours after infection, normalized for protein content, and analyzed for levels of phospho-Ser^63 c-Jun and total c-Jun, total JNK, IkBα, and NRAGE by immunoblotting. Lysates from untreated cells are indicated by ‘−’. B: PC12 cells were treated with the indicated concentrations of compound 1 for 18 hours and then lysed, normalized for protein content, and analyzed for levels of HSP70 by immunoblotting. Lysates from untreated cells are indicated by ‘−’. C: RNA isolated from PC12^rtTA cells treated with increasing concentrations of compound 1 for 18 hours was analyzed by rtPCR using primers specific to HSP70, HSP25, HSP90 or actin, as indicated. Experiments in Panel A and B were performed three times and that in Panel C was performed twice, with essentially identical results. D: PC12^rtTA cells were infected with AdNRG at 5 MOI, Adp75 at 50 MOI, or the control virus AdLacZ at 50 MOI. At time of infection, the cells were treated with increasing concentrations of compound 1, or with vehicle alone, as indicated. Thirty hours after infection, cells were lysed, normalized for protein content, and analyzed for levels of c-Jun phosphorylation, HSP70, HSP25, HSP40, NRAGE, p75NTR, JNK-1 and IkBα, as indicated.
FIGS. 6A, 6B and 6C are graphs and photographs of Western blots which illustrate that compound 1 analogues inhibit JNK activation and induce expression of HSP70. A: PC12^rtTA cells were infected with 5 MOI of AdNRG, 50 MOI of Adp75 or 50 MOI of the control virus AdLacZ. At time of infection, the cells were treated with an increasing concentrations of compound 1, or its analogues, compound 2, compound 3, compound 4, or with vehicle alone, as indicated. Thirty hours after infection, cells were lysed, normalized for protein levels, and analyzed for levels of HSP70, HSP25 and JNK-1, as indicated. B: PC12^rtTA cells were treated as above and after 40 hours infection were assayed for death using the lactate dehydrogenase (LDH) assay. Results are normalized relative to those obtained with 1% Triton, and represent the mean±standard deviation of a representative experiment performed in triplicate (*=P<0.025 relative to ‘0’ for each compound concentration). C: PC12^rtTA cells were infected with 50 MOI of LacZ or 5 MOI of AdNRG50 and at the time of infection, were treated with 40 μM compound 1, or its analogues, compound 2, compound 3, compound 4, or with vehicle alone, as indicated. Thirty hours after infection, cells were lysed, normalized for protein levels, and were analyzed for phosphorylated c-Jun, total c-Jun, NRAGE and JNK-1, as indicated. Experiments in Panel A and C were performed twice and that in B were performed twice, with essentially identical results.
To address this, SCG neurons were treated with compound 1 for 18 hours then lysed and assessed for HSP70 levels by immunoblot. Uninfected PC12rtTA cells were treated in a similar manner. […] To test if the accumulation of HSP70 induced by compound 1 reflected increased steady state levels of its mRNA, RNA was isolated from PC12 cells treated with increasing concentrations of compound 1 for 18 hours and the cell lysates subjected to semi-quantitative rtPCR. […] HSP protein levels were also assessed in PC12rtTA cells infected with AdLacZ, Adp75, or AdNRG, and at the same time, exposed to compound 1.

[1] = cells infected with LacZ or Adp75, increasing concentrations

Structure (SMILES)	HSP70 production	HSP70 levels versus AdNRG alone (cells infected with AdNRG)	HSP40 protein level [1]	HSP70 and HSP25 protein levels [1]	cellular HSP70 levels (uninfected PC12rtTA cells, 18 hours)
NS(=O)(=O)c1nn2cc(-c3ccccc3)nc2s1 [Compound 1]	induced HSP70 production	substantially higher	not HSP40	robust increase	large increase
NS(=O)(=O)c1nn2cc(-c3ccc(N4CCOCC4)cc3)nc2s1 [Compound 2]	robustly induced HSP70 production	–	–	–	–
